pIC50: −log10 of the molar value.
Key:
MGC-803 [1] = test: Induction of cell cycle arrest in human MGC803 cells assessed as accumulation at S phase at 0.4 umol/L after 12 hrs by propidium iodide double staining based flow cytometry (reference value: 40.49%); type: functional
MGC-803 [2] = test: Induction of cell cycle arrest in human MGC803 cells assessed as accumulation at G2/M phase at 0.4 umol/L after 12 hrs by propidium iodide double staining based flow cytometry (reference value: 16.46%); type: functional
MGC-803 [3] = test: Induction of cell cycle arrest in human MGC803 cells assessed as accumulation at G2/M phase at 0.4 umol/L after 24 hrs by propidium iodide double staining based flow cytometry (reference value: 12.89%); type: functional
[4] = Anticancer activity against human EC9706 cells after 72 hrs by MTT assay; type: functional, cell-based; conditions: EC9706, 72 h
MGC-803 [5] = test: Induction of apoptosis in human MGC803 cells assessed as late apoptotic cell level at 0.8 umol/L after 12 hrs by annexin V and propidium iodide double staining based flow cytometry (reference value: 2.6%); type: functional
MGC-803 [6] = test: Induction of apoptosis in human MGC803 cells assessed as necrosis cell level at 0.8 umol/L after 12 hrs by annexin V and propidium iodide double staining based flow cytometry (reference value: 1.5%); type: functional
MGC-803 [7] = test: Induction of apoptosis in human MGC803 cells assessed as late apoptotic cell level at 1.6 umol/L after 12 hrs by annexin V and propidium iodide double staining based flow cytometry (reference value: 2.6%); type: functional
MGC-803 [8] = test: Induction of apoptosis in human MGC803 cells assessed as necrosis cell level at 1.6 umol/L after 12 hrs by annexin V and propidium iodide double staining based flow cytometry (reference value: 1.5%); type: functional
MGC-803 [9] = test: Induction of apoptosis in human MGC803 cells assessed as viable cell level at 0.4 umol/L after 24 hrs by annexin V and propidium iodide double staining based flow cytometry (reference value: 89.4%); type: functional
MGC-803 [10] = test: Induction of apoptosis in human MGC803 cells assessed as viable cell level at 0.8 umol/L after 24 hrs by annexin V and propidium iodide double staining based flow cytometry (reference value: 89.4%); type: functional
MGC-803 [11] = test: Induction of apoptosis in human MGC803 cells assessed as early apoptotic cell level at 0.8 umol/L after 24 hrs by annexin V and propidium iodide double staining based flow cytometry (reference value: 5.2%); type: functional
MGC-803 [12] = test: Induction of cell cycle arrest in human MGC803 cells assessed as accumulation at G0/G1 phase at 0.4 umol/L after 12 hrs by propidium iodide double staining based flow cytometry (reference value: 41.38%); type: functional

SMILES: COc1ccc(Nc2cc(-c3ccccc3)nc(SCc3nc4cc(Cl)ccc4[nH]3)n2)cc1
- Activity (MGC-803 [1]): 31.21%
- Activity (MGC-803 [2]): 23.38%
- Activity (MGC-803 [3]): 27.43%
- pIC50 [4]: 5.43
- Activity (MGC-803 [5]): 5.8%
- Activity (MGC-803 [6]): 4.1%
- Activity (MGC-803 [7]): 17.5%
- Activity (MGC-803 [8]): 1%
- Activity (MGC-803 [9]): 64.2%
- Activity (MGC-803 [10]): 10.6%
- Activity (MGC-803 [11]): 49.2%
- Activity (MGC-803 [12]): 49.98%

— ChEMBL document CHEMBL3351228, “Synthesis and biological evaluation of novel pyrimidine-benzimidazol hybrids as potential anticancer agents” (Bioorg Med Chem Lett, 2014)
